From patent US20080038809A1, “ISOLATED LECTIN POLYPEPTIDES CONSISTING OF TRUNCATED […] UDP-GalNAc:POLYPEPTIDE N- ACETYLGALACTOSAMINYLTRANSFERASES” (GLYCOZYM APS, priority 2002, published 2008)
Entries after “also recorded” stand apart in the source; their conditions may differ.

Experiments:
[1] = tested on: MUC1 in CHO1d1D/MUC1F-clone2 cells; assay: MUC1 expression in cell lysates, immunoprecipitation and SDS-PAGE western blot (FIGS. 12-15); type: cell-based, Chinese Hamster; details: 2 mM; for SDS-PAGE migration of MUC1 (O-glycosylation): cells grown in Gal and GalNAc
Description: FIG. 12 is an SDS-PAGE Western analysis of GalNAcα-benzyl inhibition of MUC1 expression in CHO 1d1D cells stably transfected with a full coding MUC1 construct. […] Cells were further treated with 2 mM GalNAcα-benzyl (lanes 1, 4, 7, 10), 2 mM GlcNAcα-benzyl (lanes 2, 5, 8, 11) or no inhibitor (lanes 3, 6, 9, 12). Cells were washed and lysed at 24 or 48 hours and the lysates subjected to immunoprecipitation with monoclonal antibody HMFG2, which broadly recognize MUC1 glycoforms. Immunoprecipitates were analysed by SDS-PAGE and western blot using HMFG2 antibody to detect MUC1 expression. Lane M indicates molecular markers with assigned mw. Lane C includes a control MUC1 180-mer tandem repeat peptide which has been GalNAc-glycosylated with 3 moles GalNAc per repeat using GalNAc-T2. The sharp bands migrating at 100-200 kd are immunoglobulins indicated by IgG.
Cells were further treated with 2 mM GalNAcα-benzyl (lanes 1, 4, 7, 10), 2 mM GalNAcβ-benzyl (lanes 2, 5, 8, 11) or 2 mM GlcNAcα-benzyl (lanes 3, 6, 9, 12). Cells were washed and lysed at 36 hours and the lysates subjected to immunoprecipitation with monoclonal antibodies HMFG2 (lanes 1-6) or 5E5 (lanes 7-12). Immunoprecipitates were analysed by SDS-PAGE and western blot using HMFG2 antibody. Lanes M and C as described in legend to FIG. 7.
We next analysed the expression of MUC1 produced by CHO1d1D/MUC1F-clone2 cells by SDS-PAGE western analysis. […] Cells were further treated with 2 mM GalNAcα-benzyl, GlcNAcα-benzyl or no inhibitor. Cells were washed and lysed at 24 or 48 hours and the lysates subjected to immunoprecipitation with monoclonal antibody HMFG2, which broadly recognize MUC1 glycoforms. Immunoprecipitates were analysed by SDS-PAGE and western blot using HMFG2 antibody to detect MUC1 expression. […] In striking contrast, treatment with GalNAcα-benzyl had significant effect after 48 hours. […] This indicates some heterogeneity in glycosylation.
As shown in Examples 2 and 3, polypeptide GalNAc-transferases contain lectin domains with binding properties for GalNAc-peptides including GalNAc-MUC1 peptides. […] GalNAcβ-benzyl, the β-anomeric configuration of GalNAc-benzyl (there is a β linkage between the N-acetylgalactosamine and the benzyl ring), was custom synthesized by Alberta Research Council (Canada), and its structure was confirmed by mass spectrometry and ^1H-NMR. […] Cells were then treated with 2 mM GalNAcα-benzyl, GalNAcβ-benzyl, or GlcNAcα-benzyl as control (GlcNAcα-benzyl was shown in Example 4 to have no effect). Cells were washed and lysed as described above after 36 hours and the lysates subjected to immunoprecipitation with anti-MUC1 monoclonal antibodies HMFG2 or 5E5. […] FIG. 15 illustrates the same experiment as in FIG. 14 except that the detection antibody is 5E5 and only Tn and STn MUC1 glycoforms are visualised.

[2] = target: T1, human GalNAc-T2 (UDP-GalNAc:polypeptide N-acetylgalactosaminyltransferase T2) isolated truncated lectin domain (T2ld), HIS-tagged, amino acid residues 408-571 o (Homo sapiens, UniProt Q10471); type: binding
T1 sequence (Q10471 408-571): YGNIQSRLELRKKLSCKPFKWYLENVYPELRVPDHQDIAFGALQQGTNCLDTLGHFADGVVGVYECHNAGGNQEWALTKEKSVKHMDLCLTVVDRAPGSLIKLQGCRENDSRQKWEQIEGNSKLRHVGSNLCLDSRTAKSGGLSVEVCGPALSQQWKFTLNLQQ
Description: (§1) In order to minimize the size and functional complexity of GalNAc-transferase lectins to be used as probes for binding studies, we used multiple sequence alignment analysis to predict and design suitable expression constructs for isolated lectin domains (FIG. 2). In the present invention a direct binding assay was developed using isolated lectin domains of GalNAc-T4 and -T2 with minimal size (FIG. 5). […] The lectin Helix Pomatia (HP) was used as a control plant lectin with known binding specificity for […].
(§2) Direct binding ELISA assay was developed as follows: Polystyrene microtiter plates (Maxisorb, Nunc, Denmark) were coated with peptides or enzymatically glycosylated glycopeptides in PBS overnight at 4° C. Plates were washed and blocked with 0.1% Tween20 and 0.2% BSA in PBS for 1 h at room temperature, followed by incubation with biotinylated proteins in PBS with 0.05% Tween20 for 2 h at room temperature. After four washes with PBS, plates were incubated with 1:2,000 dilution streptavidin-HRP (Sigma) in PBS for 30 min at room temperature and washed four times with PBS. Development was performed with 0.5 mg/ml o-phenylenediamine and 0.02% H2O2 at room temperature for 15 min, and reaction stopped by adding 100 μl/well of 0.5 N H2SO4. Competitive inhibition assays were done at end-point titers of GalNAc-transferase proteins with one hour preincubations with inhibitor.
(§3) In binding studies using lectins without biotinylation antibodies to the HIS-tag and the T7-tag, or in some experiments antibodies raised to GalNAc-T2 and -T4 enzymes were used to detect binding.
(§4) Inhibition experiments were used to further define the binding specificity of GalNAc-T2 and -T4 secreted soluble enzymes as well as lectin domains compared to Helix Pomatia lectin (Table IV).
(§5) The ligand target used in this Example is a GalNAc-MUC1 glycopeptide produced enzymatically from synthetic peptides.

[3] = target: human GalNAc-T4 (UDP-GalNAc:polypeptide N-acetylgalactosaminyltransferase T4) isolated truncated lectin domain (T4ld), HIS-tagged, amino acid residues 405-578 o (Homo sapiens, UniProt Q8N4A0); assay: biochemical; type: binding; details: isolated lectin domain
Chain of human GalNAc-T4 (UDP-GalNAc:polypeptide N-acetylgalactosaminyltransferase T4) isolated truncated lectin domain (T4ld), HIS-tagged, amino acid residues 405-578 o (Q8N4A0 405-578): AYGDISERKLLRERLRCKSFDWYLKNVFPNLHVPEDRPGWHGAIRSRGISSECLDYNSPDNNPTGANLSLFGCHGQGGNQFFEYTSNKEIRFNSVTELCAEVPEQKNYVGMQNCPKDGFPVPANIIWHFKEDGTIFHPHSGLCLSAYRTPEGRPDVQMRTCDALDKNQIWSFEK
Description: as §1, §2, §3, §4, §5

| SMILES | MUC1 expression ([1]; 24 hours, HMFG2 blot) | MUC1 expression ([1]; 36 hours, 5E5 blot (FIG. 15)) | MUC1 expression ([1]; 36 hours, HMFG2 blot (FIG. 14)) | MUC1 expression ([1]; 48 hours, HMFG2 blot, cells grown in GalNAc or Gal and GalNAc) | SDS-PAGE migration of MUC1 (O-glycosylation) ([1]; 48 hours, listed as GalNAcα-benzyl) | inhibition of GalNAc-T2 lectin domain binding (in words) [2] | inhibition of GalNAc-T4 lectin domain binding (in words) [3] | SDS-PAGE migration of MUC1 (O-glycosylation) ([1]; 36 hours) |
| --- | --- | --- | --- | --- | --- | --- | --- | --- |
| CC(=O)N[C@H]1[C@@H](OCc2ccccc2)O[C@H](CO)[C@H](O)[C@@H]1O [BzlαGalNAc, benzyl-N-acetyl-alpha-D-galactosaminide] | no significant effect | strong inhibition | significant reduction | significant reduction | significant shift in migration; also recorded: marked shift in migration | – | – | – |
| CC(=O)N[C@H]1[C@@H](OCc2ccccc2)O[C@H](CO)[C@H](O)[C@@H]1O [GalNAcα-benzyl, benzyl-N-acetyl-alpha-D-galactosaminide] | – | – | – | – | – | inhibited binding to the same degree | inhibited binding to the same degree | – |
| CC(=O)N[C@H]1[C@H](OCc2ccccc2)O[C@H](CO)[C@H](O)[C@@H]1O [GalNAcβ-benzyl] | – | strong inhibition; also recorded: same or better reduction | significant reduction; also recorded: same or better reduction | – | – | inhibited binding to the same degree | inhibited binding to the same degree | does not interfere with O-glycosylation; also recorded: no change in the migration |
